The values that follow come from article PMC8707451, “Separation and Identification of Antioxidants and Aldose Reductase Inhibitors in Lepechinia meyenii (Walp.) Epling” (Plants, 2021).

The nature of assay [1]: DPPH radical scavenging assay (antioxidant). Conditions: for IC50: pure compounds. Here is the method: The antioxidant potential of the samples was evaluated using DPPH radical scavenging assay, as reported previously. In brief, 180 μL of freshly prepared DPPH solution (0.32 mM in MeOH) was mixed with 20 μL of the sample (in 50% MeOH, extracts and fractions, 50–400 µg/mL; components, 125–500 µM) in a 96-well plate and incubated for 20 min in the dark at 25 °C. Then, the absorbance (570 nm) of the reaction solution was measured using an EL800 microplate reader (Bio-Tek Instruments, Winooski, VT, USA). Quercetin was used as a positive control.

Assay [2] addresses rat lens AR (aldose reductase) (Rattus norvegicus, UniProt P07943). The assay can be described thus: AR inhibition assay with rat lens AR homogenate.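 Also: supernatant of Sprague–Dawley rat lens extract as enzyme, DL-glyceraldehyde substrate, absorbance at 340 nm followed over 6 min, DMSO up to 0.5% v/v.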
Method: The eyes of 10-week Sprague–Dawley rats (250–280 g) were removed and kept at −70 °C before use. Then, the lenses were removed from the eyes using surgical scissors and tweezers, ground in a mortar (precooled at −70 °C) and extracted using 0.1 M phosphate-buffered saline (PBS) of pH 6.2 (approximately 0.5 mL of buffer per one rat lens). The extract solution was further centrifuged at 10,000× g for 30 min at 4 °C (Mega 17R, Hanil Science Industry, Gimpo, Korea), and the supernatant was collected and used as rat lens AR homogenate.
For AR inhibition assay, 100 µL of 0.1 M PBS (pH 7.0), 20 µL of AR homogenate, 20 µL of NADPH (cofactor, 2.4 mM in 0.1 M PBS of pH 8.0), 20 µL of the sample (in a mixture of water and DMSO; extracts and fractions 62.5–100 µg/mL, compounds 3.9–500 µM), and 20 µL of ammonium sulfate solution (4 M in 0.1 M PBS of pH 7.0) were pipetted into a 96-well plate. Then, 20 µL of the substrate (in 0.1 M PBS of pH 7.0; 25 mM of DL-glyceraldehyde dimmer) was added, and the absorbance (340 nm) was measured for 6 min using an Epoch microplate spectrophotometer (BioTek Instruments, Winooski, VT, USA). […] DMSO was used to prepare samples, but its ratio was kept within 0.5% (v/v) of the reaction system.
The half-maximal inhibitory concentrations (IC50 values) of samples against DPPH radicals and AR were calculated via linear regression and logarithmic analysis, respectively.
Where [3] appears, read: read-out: AR Inhibitory Activity Inhibition (%).

The inhibition is the relative decrease from the control value, in per cent. As a reminder, the IC50 is the concentration that gives 50% inhibition. Lower therefore signals greater potency.

Structures are written as SMILES. Marks after values point to notes of the source that are not given here.

As for `O=C(O)/C=C/c1ccc(O)c(O)c1` [Caffeic acid (1), Caffeic acid], in assay [1] (compound concentration 12.5 µM), the “DPPH Scavenging Activity Inhibition (%)” value is listed as 8.60 ± 0.87%. Besides, in assay [1] (compound concentration 25 µM), the “DPPH Scavenging Activity Inhibition (%)” value is 20.21 ± 0.58%. The “DPPH Scavenging Activity Inhibition (%)” value in assay [1] (compound concentration 50 µM) turned out to be 43.33 ± 0.69%. In addition, in assay [2] (setting [3]), the inhibition at 12.5 µM was 12.3 ± 2.09%, the inhibition at 25 µM turned out to be 17.8 ± 0.41% and the inhibition at 50 µM is 20.3 ± 0.62%.

In the case of `COc1ccc(-c2cc(=O)c3c(O)cc(O)cc3o2)cc1O` [Diosmetin (6), Diosmetin], the “DPPH Scavenging Activity Inhibition (%)” value in assay [1] (compound concentration 12.5 µM) was 0.14 ± 0.34%; in assay [1] (compound concentration 25 µM), 0.46 ± 0.35%; in assay [1] (compound concentration 50 µM) it was 3.18 ± 0.42%. Further, the inhibition at 12.5 µM in assay [2] (setting [3]) was found to be 10.5 ± 3.79%. Moreover, in assay [2] (setting [3]), the inhibition at 25 µM came out at 22 ± 1.25%. Besides, the inhibition at 50 µM in assay [2] (setting [3]) stood at 34 ± 1.03%.

For `COc1ccc(-c2cc(=O)c3c(O)cc(O[C@@H]4O[C@H](CO[C@@H]5O[C@@H](C)[C@H](O)[C@@H](O)[C@H]5O)[C@@H](O)[C@H](O)[C@H]4O)cc3o2)cc1O` [Diosmin (4), Diosmin], the “DPPH Scavenging Activity Inhibition (%)” value in assay [1] (compound concentration 12.5 µM) is 0.31 ± 0.69%. The “DPPH Scavenging Activity Inhibition (%)” value in assay [1] (compound concentration 25 µM) came out at 0.61 ± 1.08%. Besides, in assay [1] (compound concentration 50 µM), the “DPPH Scavenging Activity Inhibition (%)” value is reported as 2.61 ± 0.67%. In assay [2] (setting [3]), the inhibition at 12.5 µM was found to be 8.91 ± 0.62%, the inhibition at 25 µM is 11.2 ± 0.82% and the inhibition at 50 µM was determined as 12.3 ± 0.62%.

With `CCOC(=O)[C@@H](Cc1ccc(O)c(O)c1)OC(=O)/C=C/c1ccc(O)c(O)c1` [Ethyl rosmarinate (S1), Ethyl rosmarinate], the “DPPH Scavenging Activity Inhibition (%)” value in assay [1] (compound concentration 12.5 µM) is reported as 22.02 ± 0.35%; in assay [1] (compound concentration 25 µM) it was 38.38 ± 0.53%; in assay [1] (compound concentration 50 µM), 83.09 ± 0.21%. Also, the 50% inhibitory concentration (IC50) turned out to be 30.54 ± 0.13 µM in assay [1] (linear regression) and 1.02 ± 0.07 µM in assay [2]. In addition, the inhibition at 0.39 µM in assay [2] (setting [3]) was 27.4 ± 2.66%. Moreover, the inhibition at 0.78 µM in assay [2] (setting [3]) came out at 43.2 ± 0.62%. For the same compound, the inhibition at 1.56 µM in assay [2] (setting [3]) was determined as 60.5 ± 2.05%.

Turning to `COc1ccc([C@@H]2CC(=O)c3c(O)cc(O[C@@H]4O[C@H](CO[C@@H]5O[C@@H](C)[C@H](O)[C@@H](O)[C@H]5O)[C@@H](O)[C@H](O)[C@H]4O)cc3O2)cc1O` [Hesperidin (2), Hesperidin], in assay [1] (compound concentration 12.5 µM), the “DPPH Scavenging Activity Inhibition (%)” value was 1.20 ± 1.18%. The “DPPH Scavenging Activity Inhibition (%)” value in assay [1] (compound concentration 25 µM) is given as 2.57 ± 0.77%. In assay [1] (compound concentration 50 µM), the “DPPH Scavenging Activity Inhibition (%)” value was 3.37 ± 1.32%. In assay [2] (setting [3]), the inhibition at 12.5 µM turned out to be 1.78 ± 0.33%, the inhibition at 25 µM stood at 10 ± 1.22% and the inhibition at 50 µM worked out at 11.6 ± 0.41%.

As to `COC(=O)[C@@H](Cc1ccc(O)c(O)c1)OC(=O)/C=C/c1ccc(O)c(O)c1` [Methyl rosmarinate (5), Methyl rosmarinate], the “DPPH Scavenging Activity Inhibition (%)” value was 18.68 ± 0.63% in assay [1] (compound concentration 12.5 µM), 37.59 ± 0.60% in assay [1] (compound concentration 25 µM) and 76.21 ± 1.04% in assay [1] (compound concentration 50 µM). In addition, the results for the IC50 in assay [1] (linear regression) and in assay [2] were 33.01 ± 0.27 µM and 1.17 ± 0.08 µM, respectively. In assay [2] (setting [3]), the inhibition at 0.39 µM amounted to 22.1 ± 0.85%. Also, the inhibition at 0.78 µM in assay [2] (setting [3]) is 40.9 ± 3.47%. In addition, in assay [2] (setting [3]), the inhibition at 1.56 µM stood at 56.7 ± 0.85%.

Turning to `CCCOC(=O)[C@@H](Cc1ccc(O)c(O)c1)OC(=O)/C=C/c1ccc(O)c(O)c1` [Propyl rosmarinate (S2), Propyl rosmarinate], the “DPPH Scavenging Activity Inhibition (%)” value in assay [1] (compound concentration 12.5 µM) was determined as 17.68 ± 0.83%; in assay [1] (compound concentration 25 µM), 37.15 ± 0.29%; in assay [1] (compound concentration 50 µM) it was 77.82 ± 0.46%. In addition, the IC50 in assay [1] (linear regression) is 32.7 ± 0.08 µM; in assay [2], 1.29 ± 0.01 µM. Moreover, in assay [2] (setting [3]), the inhibition at 0.39 µM is 12.3 ± 1.84%. For the same compound, in assay [2] (setting [3]), the inhibition at 0.78 µM worked out at 37.9 ± 1.25%. Further, the inhibition at 1.56 µM in assay [2] (setting [3]) is 53.67 ± 0.41%.

For `O=c1c(O)c(-c2ccc(O)c(O)c2)oc2cc(O)cc(O)c12` [Quercetin, quercetin, reference compound], in assay [1] (compound concentration 12.5 µM), the “DPPH Scavenging Activity Inhibition (%)” value is on record as 22.31 ± 0.92%. The “DPPH Scavenging Activity Inhibition (%)” value in assay [1] (compound concentration 25 µM) was 40.39 ± 0.82%. For the same compound, the “DPPH Scavenging Activity Inhibition (%)” value in assay [1] (compound concentration 50 µM) is 72.32 ± 0.42%. Also, in assay [1] (extracts, fractions and quercetin, linear regression), the “DPPH Scavenging Activity IC50” value is recorded as 10.46 ± 0.34 ^e µg/mL. In assay [1] (linear regression), this compound showed an IC50 of 33.19 ± 0.31 µM. Further, in assay [1] (sample concentration 5 µg/mL), the “DPPH Scavenging Activity Inhibition (%)” value is recorded as 28.65 ± 0.38%. In addition, in assay [1] (sample concentration 10 µg/mL), the “DPPH Scavenging Activity Inhibition (%)” value amounted to 54.43 ± 2.07%. The “DPPH Scavenging Activity Inhibition (%)” value in assay [1] (sample concentration 20 µg/mL) is recorded as 84.78 ± 2.36%. For the same compound, in assay [2] (setting [3]), the inhibition at 2.5 µg/mL is 38.7 ± 0.91%, the inhibition at 5 µg/mL was 55.3 ± 1.58%, the inhibition at 6.25 µM is 31.5 ± 1.7% and the inhibition at 10 µg/mL was 64 ± 0.88%. In assay [2] (setting [3]), the inhibition at 12.5 µM came out at 45 ± 1.65% and the inhibition at 25 µM amounted to 65.1 ± 1.47%.

`O=C(/C=C/c1ccc(O)c(O)c1)O[C@H](Cc1ccc(O)c(O)c1)C(=O)O` [Rosmarinic acid (3), Rosmarinic acid]: the entries for the “DPPH Scavenging Activity Inhibition (%)” value in assay [1] (compound concentration 12.5 µM), in assay [1] (compound concentration 25 µM) and in assay [1] (compound concentration 50 µM) were 19.05 ± 1.33%, 34.35 ± 0.69% and 67.04 ± 0.64%, respectively. Further, the IC50 in assay [1] (linear regression) is 36.91 ± 0.35 µM; in assay [2] it was 4.08 ± 0.11 µM. Moreover, the inhibition at 3.125 µM in assay [2] (setting [3]) was 42.6 ± 1.63%. Besides, the inhibition at 6.25 µM in assay [2] (setting [3]) came out at 62.9 ± 2.1%. Further, the inhibition at 12.5 µM in assay [2] (setting [3]) was determined as 76 ± 1.03%.

Take `CCCCOC(=O)[C@@H](Cc1ccc(O)c(O)c1)OC(=O)/C=C/c1ccc(O)c(O)c1` [n-Butyl rosmarinate (7), n-Butyl rosmarinate]: the “DPPH Scavenging Activity Inhibition (%)” value in assay [1] (compound concentration 12.5 µM) came to 19.98 ± 0.29%; in assay [1] (compound concentration 25 µM) it was 40.73 ± 1.21%; in assay [1] (compound concentration 50 µM), 84.85 ± 0.81%. In addition, the 50% inhibitory concentration (IC50) in assay [1] (linear regression) is 30.02 ± 0.1 µM; in assay [2] it was 1.54 ± 0.04 µM. In assay [2] (setting [3]), the inhibition at 0.39 µM came out at 13.1 ± 0.47%. For the same compound, in assay [2] (setting [3]), the inhibition at 0.78 µM is 28.6 ± 0.47%. The inhibition at 1.56 µM in assay [2] (setting [3]) was 51.4 ± 0.94%.
